{
  "source": "ChEMBL document CHEMBL1201862",
  "about": "“PubChem BioAssay data set” (2004)",
  "key": {"[1]": {"target": "T1, RNA-binding protein pos-1 (Caenorhabditis elegans, UniProt G5EF15)", "T1 sequence (G5EF15 whole entry)": "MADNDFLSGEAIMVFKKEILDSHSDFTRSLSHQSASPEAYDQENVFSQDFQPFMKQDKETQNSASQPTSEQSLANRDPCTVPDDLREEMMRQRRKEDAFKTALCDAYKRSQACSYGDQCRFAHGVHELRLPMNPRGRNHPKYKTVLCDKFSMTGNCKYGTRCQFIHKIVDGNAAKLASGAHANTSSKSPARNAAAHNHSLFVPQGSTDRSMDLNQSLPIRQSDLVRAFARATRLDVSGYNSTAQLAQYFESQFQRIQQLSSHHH", "test": "inhibitors of POS-1/mex-3 RNA binding, dose response, biochemical, fluorescence polarization (AID 1964);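 further: purified POS-1 fused to maltose binding protein made in E. coli; potency of compounds blocking POS-1 binding to fluorescent RNA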"}, "[2]": {"target": "Female germline-specific tumor suppressor gld-1 (Caenorhabditis elegans, UniProt Q17339)", "sequence (Q17339 whole entry)": "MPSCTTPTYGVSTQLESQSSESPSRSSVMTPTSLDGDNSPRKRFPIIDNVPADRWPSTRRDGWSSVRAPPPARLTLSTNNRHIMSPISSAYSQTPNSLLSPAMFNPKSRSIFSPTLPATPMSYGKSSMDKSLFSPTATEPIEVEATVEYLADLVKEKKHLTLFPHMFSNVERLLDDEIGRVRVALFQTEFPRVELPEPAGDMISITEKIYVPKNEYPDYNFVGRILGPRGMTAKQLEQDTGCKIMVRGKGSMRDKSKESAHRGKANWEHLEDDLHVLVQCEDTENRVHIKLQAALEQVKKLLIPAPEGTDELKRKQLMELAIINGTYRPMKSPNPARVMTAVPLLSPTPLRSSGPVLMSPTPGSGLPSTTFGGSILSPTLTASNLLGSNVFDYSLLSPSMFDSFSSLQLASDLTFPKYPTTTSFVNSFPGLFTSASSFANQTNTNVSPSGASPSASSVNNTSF", "test": "inhibitors of GLD-1 binding to TGE RNA, dose response, biochemical, fluorescence polarization, C. elegans (AID 2802);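 further: fluorescence polarization of labeled TGE RNA bound by purified gld-1 protein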"}, "[3]": {"target": "T2, Zinc finger protein mex-5 (Caenorhabditis elegans, UniProt Q9XUB2)", "T2 sequence (Q9XUB2 whole entry)": "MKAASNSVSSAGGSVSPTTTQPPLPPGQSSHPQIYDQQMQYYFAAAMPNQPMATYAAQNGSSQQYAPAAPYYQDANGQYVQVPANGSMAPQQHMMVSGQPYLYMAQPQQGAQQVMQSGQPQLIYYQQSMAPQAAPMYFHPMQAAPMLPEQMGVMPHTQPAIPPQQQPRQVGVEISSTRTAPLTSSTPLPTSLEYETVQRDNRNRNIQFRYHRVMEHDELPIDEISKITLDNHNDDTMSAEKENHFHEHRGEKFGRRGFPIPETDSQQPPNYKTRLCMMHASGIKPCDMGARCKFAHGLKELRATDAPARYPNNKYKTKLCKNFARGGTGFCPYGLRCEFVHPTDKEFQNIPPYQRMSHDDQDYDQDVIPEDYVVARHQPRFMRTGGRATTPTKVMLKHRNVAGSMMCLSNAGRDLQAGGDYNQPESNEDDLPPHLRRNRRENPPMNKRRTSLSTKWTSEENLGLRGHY", "test": "MEX-5/TCR-2 RNA interaction inhibitors, dose response, biochemical, C. elegans, fluorescence polarization (AID 1960)"}, "[4]": {"target": "Protein Rev (Human immunodeficiency virus type 1 group M subtype B (isolate HXB2)(HIV-1), UniProt P04618)", "sequence (P04618 whole entry)": "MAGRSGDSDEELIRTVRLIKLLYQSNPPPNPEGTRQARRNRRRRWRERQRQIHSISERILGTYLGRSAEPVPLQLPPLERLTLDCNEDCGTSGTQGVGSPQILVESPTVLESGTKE", "test": "inhibitors of Rev binding to RRE RNA, dose response, biochemical, fluorescence polarization, HIV-1 (AID 434976)", "design": "species or system Human immunodeficiency virus 1"}, "[5]": {"target": "Neurotensin receptor type 1 (Homo sapiens, UniProt P30989)", "sequence (P30989 whole entry)": "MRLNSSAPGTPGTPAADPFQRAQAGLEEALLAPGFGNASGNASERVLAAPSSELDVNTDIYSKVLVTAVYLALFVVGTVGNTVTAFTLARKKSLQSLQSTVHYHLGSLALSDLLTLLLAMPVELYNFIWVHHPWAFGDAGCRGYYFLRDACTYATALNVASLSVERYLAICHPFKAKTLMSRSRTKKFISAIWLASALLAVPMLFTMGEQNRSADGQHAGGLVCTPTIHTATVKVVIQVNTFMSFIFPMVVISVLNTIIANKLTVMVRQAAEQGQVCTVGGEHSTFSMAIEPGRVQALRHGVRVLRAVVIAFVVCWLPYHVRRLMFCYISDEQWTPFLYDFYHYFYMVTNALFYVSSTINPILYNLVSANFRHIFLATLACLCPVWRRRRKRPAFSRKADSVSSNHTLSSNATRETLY", "type": "functional"}, "[6]": {"test": "Shn3 3'UTR reporter inhibitors, dose response, cell-based, Clone20 osteoblasts, firefly luciferase, cherry-picked (AID 624132);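 further: firefly luciferase luminescence from reporter carrying the Shn3 3'UTR in osteoblasts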", "type": "functional"}, "[7]": {"target": "Dual specificity protein phosphatase 3 (Homo sapiens, UniProt P51452)", "sequence (P51452 whole entry)": "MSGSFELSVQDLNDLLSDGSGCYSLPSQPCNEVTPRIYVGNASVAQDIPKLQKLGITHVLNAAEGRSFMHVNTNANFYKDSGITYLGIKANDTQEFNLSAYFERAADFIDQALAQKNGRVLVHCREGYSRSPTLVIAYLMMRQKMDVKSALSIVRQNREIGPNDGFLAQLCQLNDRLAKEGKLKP", "test": "VHR1 inhibitor Ki determination, SAR follow-up, biochemical, colorimetric (AID 2004)"}, "[8]": {"target": "X-box-binding protein 1 (Homo sapiens, UniProt P17861)", "sequence (P17861 whole entry)": "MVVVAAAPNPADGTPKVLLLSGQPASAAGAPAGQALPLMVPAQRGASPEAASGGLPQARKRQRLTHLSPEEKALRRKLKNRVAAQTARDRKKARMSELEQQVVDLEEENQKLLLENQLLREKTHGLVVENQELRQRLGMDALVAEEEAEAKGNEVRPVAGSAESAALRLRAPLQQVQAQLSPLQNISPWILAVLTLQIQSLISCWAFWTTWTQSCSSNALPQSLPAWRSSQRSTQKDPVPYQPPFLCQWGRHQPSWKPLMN", "type": "functional, Cricetulus griseus"}, "[9]": {"target": "T3, Delta-type opioid receptor (Homo sapiens, UniProt P41143)", "T3 sequence (P41143 whole entry)": "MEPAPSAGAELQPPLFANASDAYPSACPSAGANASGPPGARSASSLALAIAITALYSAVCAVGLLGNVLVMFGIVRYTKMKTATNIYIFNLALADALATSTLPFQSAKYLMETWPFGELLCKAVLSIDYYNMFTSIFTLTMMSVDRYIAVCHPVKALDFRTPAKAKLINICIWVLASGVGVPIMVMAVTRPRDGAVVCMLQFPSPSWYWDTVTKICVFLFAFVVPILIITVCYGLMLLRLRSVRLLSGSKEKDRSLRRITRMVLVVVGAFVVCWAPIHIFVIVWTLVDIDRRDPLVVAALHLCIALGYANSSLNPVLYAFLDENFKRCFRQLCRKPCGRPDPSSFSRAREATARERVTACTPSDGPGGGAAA", "test": "DOR agonists, SAR follow-up, image-based (AID 2370)", "type": "functional"}, "[10]": {"target": "T3, Delta-type opioid receptor", "test": "DOR antagonists, SAR follow-up, image-based (AID 2357)", "type": "functional"}, "[11]": {"target": "T4, Mu-type opioid receptor (Homo sapiens, UniProt P35372)", "T4 sequence (P35372 whole entry)": "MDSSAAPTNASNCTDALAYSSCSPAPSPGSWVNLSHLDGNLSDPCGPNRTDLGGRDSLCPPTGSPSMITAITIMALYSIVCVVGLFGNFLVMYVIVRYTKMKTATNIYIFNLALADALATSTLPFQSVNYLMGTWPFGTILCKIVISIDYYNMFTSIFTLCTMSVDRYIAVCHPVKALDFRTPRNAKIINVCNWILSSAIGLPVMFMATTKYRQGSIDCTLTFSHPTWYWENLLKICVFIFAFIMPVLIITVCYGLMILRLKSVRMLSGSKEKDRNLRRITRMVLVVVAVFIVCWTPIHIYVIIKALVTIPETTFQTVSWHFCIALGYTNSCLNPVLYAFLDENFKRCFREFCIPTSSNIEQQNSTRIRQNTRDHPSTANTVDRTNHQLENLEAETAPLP", "test": "MOR antagonists, SAR follow-up, image-based (AID 2420);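 further: compounds added before stimulation of receptor with agonist DAMGO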", "type": "functional"}, "[12]": {"target": "T5, Kappa-type opioid receptor (Homo sapiens, UniProt P41145)", "T5 sequence (P41145 whole entry)": "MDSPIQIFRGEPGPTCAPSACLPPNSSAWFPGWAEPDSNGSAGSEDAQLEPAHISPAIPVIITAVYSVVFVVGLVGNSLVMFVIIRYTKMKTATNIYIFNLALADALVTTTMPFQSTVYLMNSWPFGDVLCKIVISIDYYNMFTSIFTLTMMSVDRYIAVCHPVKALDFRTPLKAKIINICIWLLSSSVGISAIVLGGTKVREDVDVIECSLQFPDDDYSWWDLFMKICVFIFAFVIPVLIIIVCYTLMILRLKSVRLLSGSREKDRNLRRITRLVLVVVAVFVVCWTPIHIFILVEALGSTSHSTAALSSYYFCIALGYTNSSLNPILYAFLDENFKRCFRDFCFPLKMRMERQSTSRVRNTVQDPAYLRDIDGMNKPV", "test": "SAR analysis of small molecule agonists of the kappa opioid receptor via a luminescent beta-arrestin assay. [Related pubchem assays (depositor defined):AID1777, AID1786, AID1966, AID2133, AID2136, AID2348, AID2352, AID2357, AID2359, AID2370, AID2420, AID2478, AID2491, AID2492, AID2493, AID2497, AID2498, AID2500, AID449737, AID488822, AID488842]", "type": "functional"}, "[13]": {"target": "T4, Mu-type opioid receptor", "test": "MOR agonists by imaging, SAR follow-up, image-based (AID 2352)", "type": "functional"}, "[14]": {"target": "T5, Kappa-type opioid receptor", "test": "KOR agonist analogs, imaging readout, SAR follow-up, image-based (AID 2359)", "type": "functional"}, "[15]": {"target": "T5, Kappa-type opioid receptor", "test": "KOR antagonists by imaging, SAR follow-up, image-based (AID 2348)", "type": "functional"}, "[16]": {"target": "Melanin-concentrating hormone receptor 1 (Homo sapiens, UniProt Q99705)", "sequence (Q99705 whole entry)": "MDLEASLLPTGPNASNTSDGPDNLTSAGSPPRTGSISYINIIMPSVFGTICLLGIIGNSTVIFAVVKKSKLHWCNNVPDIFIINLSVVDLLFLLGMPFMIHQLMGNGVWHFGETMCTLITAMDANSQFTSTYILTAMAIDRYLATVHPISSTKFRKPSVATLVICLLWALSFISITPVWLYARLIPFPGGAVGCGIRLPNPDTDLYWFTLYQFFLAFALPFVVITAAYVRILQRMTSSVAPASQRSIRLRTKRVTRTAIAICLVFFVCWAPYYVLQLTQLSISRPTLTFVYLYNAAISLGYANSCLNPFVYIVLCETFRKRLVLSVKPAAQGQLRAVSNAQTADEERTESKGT", "test": "Late-stage fluorescence-based counterscreen for antagonists of the G-protein coupled receptor 7 (GPR7): cell-based dose response assay to identify antagonists of the melanin-concentrating hormone receptor 1 (MCHR1). [Related pubchem assays (depositor defined):AID1861, AID1880, AID1952, AID2148, AID2251, AID2257, AID485339]", "type": "functional"}, "[17]": {"target": "Neuropeptides B/W receptor type 1 (Homo sapiens, UniProt P48145)", "sequence (P48145 whole entry)": "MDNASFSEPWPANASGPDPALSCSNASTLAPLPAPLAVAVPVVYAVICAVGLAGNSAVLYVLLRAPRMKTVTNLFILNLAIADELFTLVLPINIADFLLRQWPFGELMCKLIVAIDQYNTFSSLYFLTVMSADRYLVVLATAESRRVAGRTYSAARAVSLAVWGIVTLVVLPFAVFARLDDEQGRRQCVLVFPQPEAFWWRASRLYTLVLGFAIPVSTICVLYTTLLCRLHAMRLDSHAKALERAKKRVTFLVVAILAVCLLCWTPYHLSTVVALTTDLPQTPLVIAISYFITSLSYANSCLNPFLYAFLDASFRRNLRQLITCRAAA", "test": "GPR7 antagonist potency, late-stage follow-up, cell-based, fluorescence, dose response (AID 463251)", "type": "functional"}},
  "note": "Active and inactive are the calls of the source.",
  "data": [
    {"compound": "O=C(CN1C(=O)C2CC=C(Cl)CC2C1=O)NCc1ccccc1", "note": "(configuration not stated);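 on Absolute IC50 (XBP1): confirmatory dose-response counter-screen serving a CHOP assay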", "values": [
      {"measurement": "EC50", "setting": "[1]", "result": "34.1 µM (active)"},
      {"measurement": "IC50", "setting": "[2]", "result": "7.72 µM (active)"},
      {"measurement": "EC50", "setting": "[3]", "result": "24.7 µM (active)"},
      {"measurement": "IC50", "setting": "[4]", "result": "25.8 µM (not active)"}
    ]},
    {"compound": "CCOc1cc(/C=C2\\C(=O)ON=C2C)ccc1OCc1ccccc1", "values": [
      {"measurement": "EC50", "setting": "[5]", "result": "13.9 µM (active)"},
      {"measurement": "AC50", "setting": "[6]", "result": "10.4 µM (active)"}
    ]},
    {"compound": "COc1cccc(/C=C2/C(=O)NC(=O)N(c3cccc(C)c3)C2=O)c1O", "values": [
      {"measurement": "Ki", "setting": "[7]", "result": "33.1 µM (inactive)"}
    ]},
    {"compound": "Cc1sc2ncnc(N3CCCCC3C)c2c1C", "note": "(configuration not stated)", "values": [
      {"measurement": "Absolute IC50 (XBP1)", "setting": "[8]", "result": 10, "unit": "µM"}
    ]},
    {"compound": "CCCN(Cc1cc2ccc(C)cc2[nH]c1=O)C(=O)c1ccccn1", "values": [
      {"measurement": "EC50", "setting": "[9]", "result": "> 32 µM (inactive)"},
      {"measurement": "IC50", "setting": "[10]", "result": "> 32 µM (inactive)"},
      {"measurement": "IC50", "setting": "[11]", "result": "> 32 µM (inactive)"},
      {"measurement": "EC50", "setting": "[12]", "result": "> 10 µM (inactive)"},
      {"measurement": "EC50", "setting": "[13]", "result": "> 32 µM (inactive)"},
      {"measurement": "EC50", "setting": "[14]", "result": "> 32 µM (inactive)"},
      {"measurement": "IC50", "setting": "[15]", "result": "> 32 µM (inactive)"}
    ]},
    {"compound": "COc1cc(OC)cc(Oc2c(Cl)cnn(-c3ccc(C(C)C)cc3)c2=O)c1", "values": [
      {"measurement": "IC50", "setting": "[16]", "result": "10.5 µM (inactive)"},
      {"measurement": "IC50", "setting": "[17]", "result": "8.2 µM (active)"}
    ]}
  ]
}
